Reference: ChEMBL document CHEMBL1201862, “PubChem BioAssay data set” (2004)
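In this assay, cells in 96-well plates receive the compound at five concentrations for 48 hours. Endpoints are linearly interpolated between the surrounding concentrations. GI50 is the concentration that inhibits growth by half.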 Activity calls are given as the source filed them. Cut-off read from the data, not from the text of the source: active = GI50 up to about 1.1 µM and inactive = higher.

Assays:
Assay in all cases: DTP human tumour cell line panel, 48 h
KM-20L2 = tested on: KM-20L2
SNB-78 = tested on: SNB-78
DMS-273 = tested on: DMS-273
RXF 631 = tested on: RXF 631
HOP-18 = tested on: HOP-18
M19-MEL = tested on: M19-MEL
DLD-1 = tested on: DLD-1
XF498 = tested on: XF498
DMS-114 = tested on: DMS-114

SMILES	GI50 (KM-20L2)	GI50 (SNB-78)	GI50 (DMS-273)	GI50 (RXF 631)	GI50 (HOP-18)	GI50 (M19-MEL)	GI50 (DLD-1)	GI50 (XF498)	GI50 (DMS-114)
COc1cc([C@@H]2c3cc4c(cc3[C@@H](NC(=O)c3ccc([N+](=O)[O-])cc3)C3COC(=O)[C@@H]32)OCO4)cc(OC)c1O (some centres not stated)	0.615 µM (active)	1.92 µM (inactive)	0.111 µM (active)	1.02 µM (active)	67.8 µM (inactive)	1.25 µM (inactive)	1.38 µM (inactive)	0.166 µM (active)	0.31 µM (active)
O=C(c1ccccc1)C1(Br)S(=O)(=O)OCCOS1(=O)=O	> 100 µM (inactive)	> 100 µM (inactive)	> 100 µM (inactive)	–	–	> 100 µM (inactive)	> 100 µM (inactive)	> 100 µM (inactive)	> 100 µM (inactive)
FC(F)(F)c1ccc(C2SCc3nc4ccccc4n32)cc1 (configuration not stated)	–	> 100 µM (inactive)	33.8 µM (inactive)	2.96 µM (inactive)	> 100 µM (inactive)	66.8 µM (inactive)	7.24 µM (inactive)	–	7.21 µM (inactive)
Cc1nc2ccccc2c(=O)n1-c1ccccc1I	–	> 100 µM (inactive)	–	–	–	> 100 µM (inactive)	> 100 µM (inactive)	–	82.4 µM (inactive)
CC(C)(CN1CCCCC1)C(=O)/C=C/c1ccc(/C=C/C(=O)C(C)(C)CN2CCCCC2)cc1	0.644 µM (active)	2.46 µM (inactive)	0.361 µM (active)	–	1.28 µM (inactive)	0.982 µM (active)	0.142 µM (active)	0.344 µM (active)	0.701 µM (active)
C[C@@]1(O)CC[C@]2(C)C3CCCC3[C@H]12 (some centres not stated)	> 100 µM (inactive)	> 100 µM (inactive)	> 100 µM (inactive)	> 100 µM (inactive)	> 100 µM (inactive)	> 100 µM (inactive)	> 100 µM (inactive)	–	> 100 µM (inactive)
CCCCCCCCCC(=O)OCC1OC(n2cc(F)c(=O)[nH]c2=O)C(NC(=O)OCc2ccccc2)C(OC(=O)CCCCCCCCC)C1O (configuration not stated)	> 10 µM (inactive)	–	36.8 µM (inactive)	–	–	36.8 µM (inactive)	–	–	18.8 µM (inactive)
CC1=C(C(=O)CC(=O)C(=O)Nc2ccccc2C)Sc2ccccc2N1	> 81.3 µM (inactive)	> 100 µM (inactive)	> 100 µM (inactive)	–	> 100 µM (inactive)	> 100 µM (inactive)	> 45.8 µM (inactive)	–	–
CCO/C([O-])=C(\C(=O)c1ccc([N+](=O)[O-])cc1)[n+]1c(C)n(C)c2ccccc21	> 100 µM (inactive)	> 100 µM (inactive)	> 100 µM (inactive)	–	> 100 µM (inactive)	> 100 µM (inactive)	> 100 µM (inactive)	–	> 100 µM (inactive)
Oc1ccc(Br)cc1/C=N/c1ccc(Oc2ccc(/N=C/c3cc(Br)ccc3O)cc2)cc1	> 19.6 µM (inactive)	–	> 19.6 µM (inactive)	–	> 19.6 µM (inactive)	> 19.6 µM (inactive)	> 19.6 µM (inactive)	–	> 19.6 µM (inactive)
COc1cc(/C=C/c2ccc(OC)c(O)c2)cc(OC)c1	20.4 µM (inactive)	5.64 µM (inactive)	15.2 µM (inactive)	–	–	6.41 µM (inactive)	5.52 µM (inactive)	3.37 µM (inactive)	3.33 µM (inactive)
Cc1n[nH]c(=S)n(C)c1=S	> 100 µM (inactive)	> 100 µM (inactive)	> 100 µM (inactive)	> 100 µM (inactive)	27.2 µM (inactive)	> 100 µM (inactive)	> 100 µM (inactive)	> 100 µM (inactive)	> 100 µM (inactive)
CN(C)C(=S)/N=c1\ssc(=S)n1Cc1ccncc1	32.9 µM (inactive)	> 100 µM (inactive)	16.4 µM (inactive)	3.8 µM (inactive)	17.7 µM (inactive)	10.7 µM (inactive)	16 µM (inactive)	5.66 µM (inactive)	2.39 µM (inactive)
CC(=O)OC1OC2C(NC(=O)OC(C)(C)C)C1CC2(OCc1ccccc1)OCc1ccccc1 (configuration not stated)	19.9 µM (inactive)	37.6 µM (inactive)	18.6 µM (inactive)	33.4 µM (inactive)	19.5 µM (inactive)	25.8 µM (inactive)	–	18.9 µM (inactive)	18.7 µM (inactive)
CN(C)CCC(/C=C/c1ccccc1)=N\Nc1ccc(Cl)cc1Cl	–	13.5 µM (inactive)	13.2 µM (inactive)	–	10.2 µM (inactive)	15.6 µM (inactive)	14.1 µM (inactive)	–	14.8 µM (inactive)
CC1CC[C@]2(C(=O)O)CCC3(C)C(=CCC4[C@@]5(C)CC[C@H](OS(=O)(=O)c6ccccc6)C(C)(C)C5CC[C@]43C)[C@@H]2[C@H]1C (some centres not stated)	–	> 100 µM (inactive)	> 100 µM (inactive)	> 100 µM (inactive)	37.9 µM (inactive)	> 100 µM (inactive)	82 µM (inactive)	36.4 µM (inactive)	39.2 µM (inactive)
OC1OCC(COc2cc(Cl)c(Cl)cc2Cl)OC1O (configuration not stated)	> 100 µM (inactive)	22.7 µM (inactive)	36.4 µM (inactive)	32.7 µM (inactive)	25.6 µM (inactive)	66.1 µM (inactive)	44.2 µM (inactive)	–	28.4 µM (inactive)
CC1(C)C(=O)C(=Cc2ccco2)C1=O	–	> 100 µM (inactive)	–	> 100 µM (inactive)	> 100 µM (inactive)	> 100 µM (inactive)	> 100 µM (inactive)	> 100 µM (inactive)	> 100 µM (inactive)
CCCCc1c2c([n+]([O-])c3c1CCCC3)CCCC2	> 100 µM (inactive)	–	96.6 µM (inactive)	–	–	66.8 µM (inactive)	–	> 100 µM (inactive)	> 100 µM (inactive)
O=C(NC1C2CC3CC(C2)CC1C3)/C(Cl)=C1/Sc2ccccc2NC1=O (configuration not stated)	> 100 µM (inactive)	> 100 µM (inactive)	> 49 µM (inactive)	–	> 100 µM (inactive)	> 91.6 µM (inactive)	> 100 µM (inactive)	> 100 µM (inactive)	> 65.5 µM (inactive)
COc1ccc(N2C(=O)C3CC(c4ccc(Br)cc4)c4c([nH]c5ccccc45)C3C2=O)cc1 (configuration not stated)	9.46 µM (inactive)	14.8 µM (inactive)	6.41 µM (inactive)	–	7.82 µM (inactive)	10.2 µM (inactive)	10.1 µM (inactive)	13 µM (inactive)	6.93 µM (inactive)
Cc1cc2nc3c(C(OC4OC(CO)C(O)C(O)C4O)C(O)CO)nn(-c4ccc(F)cc4)c3nc2cc1C (configuration not stated)	> 100 µM (inactive)	> 100 µM (inactive)	–	> 100 µM (inactive)	–	> 100 µM (inactive)	> 100 µM (inactive)	> 100 µM (inactive)	> 100 µM (inactive)
CN(C)c1n/c(=N/Cc2ccco2)ss1	> 100 µM (inactive)	> 58.9 µM (inactive)	4.53 µM (inactive)	–	> 100 µM (inactive)	5.05 µM (inactive)	14.2 µM (inactive)	> 100 µM (inactive)	3.33 µM (inactive)
CC1=C(c2nc3ccccc3s2)C(=O)OC1(C)C	> 100 µM (inactive)	> 100 µM (inactive)	> 100 µM (inactive)	> 100 µM (inactive)	–	> 100 µM (inactive)	> 100 µM (inactive)	> 100 µM (inactive)	> 100 µM (inactive)
